According to patent publication US12508262B2, “Methods of using ALK2 inhibitors” (Keros Therapeutics, Inc., priority 2020, dated 2025):

Experiments:
[1] = test system: healthy volunteers; assay: Phase 1 single- and multiple-ascending dose study, safety and tolerability; format: in vivo, human
From the text: A total of 131 healthy, males aged 18 to 60 years and post-menopausal females aged 45 to 60 years, participated in this study.
(§1) The primary objectives of this study were to a) evaluate safety and tolerability of escalating doses of the compound of Formula I-11 administered as single and multiple oral doses in healthy male volunteers and healthy postmenopausal female volunteers and b) evaluate the PK parameters following escalating doses of the compound of Formula I-11 administered as single and multiple oral doses. The secondary objective of this study was to evaluate the pharmacodynamic (PD) parameters following escalating doses of the compound of Formula I-11 administered as single and multiple oral doses. This study was conducted in two parts.
Part 1 included 80 participants (10 cohorts of 8 participants each). Male and female participants who met the eligibility criteria were randomly assigned, in a ratio of 3:1 to receive the compound of Formula I-11 or matching placebo, N=6 and 2 per dose cohort, respectively. Participant enrollment included […] males and 12.5% females (postmenopausal). The IMP formulation used in Cohorts 1 through 6 was an oral capsule (doses of 1, 3, 10, 30, 100, or 300 mg capsule formulation). An oral liquid formulation was evaluated in Cohorts 7 through 10 (doses of 30, 100, 300 or 450 mg liquid formulation).
(§2) Participants in Part 1 received a single oral dose of the compound of Formula I-11 or placebo on Day 1 and serial PK samples were collected. Baseline assessments were performed on day −1 prior to dosing. Samples were collected for determination of pharmacodynamic parameters at pre-dose daily and up to 24 hours post dose (day 2) after a single oral dose of the compound of Formula I-11. Participants remained at the study site for observation for 24 hours post-dose through the PK sample collection on Day 2. Participants returned to the site for the 48, 72, and 120-hour post-dose sample collection on Days 3, 4, and 6. Safety was evaluated by a Safety Review Committee prior to escalation to the next dose level cohort.
Part 2, Cohorts 1 through 4, included 41 participants (4 cohorts of 10 participants each and 1 additional placebo participant in Cohort 1). Male and female participants who met the eligibility criteria were randomly assigned at a ratio of 4:1 to receive either the compound of Formula I-11 oral liquid formulation or matching placebo, N=8 and 2 per dose cohort respectively. Forty (97.6%) males and 1 (2.4%) female (placebo) participant were enrolled.
(§3) Participants in Part 2, Cohorts 1 through 3, received a daily oral dose of the compound of Formula I-11 (50, 100, or 200 mg liquid formulation respectively) or placebo for 7 days. A daily oral dose of the compound of Formula I-11 or placebo in participants in Part 2, Cohort 4 (350 mg liquid formulation) was planned for 14 days but was discontinued early in all subjects, either by the Investigator because of AEs, or by the Sponsor. A decision was made by the Sponsor to discontinue dosing of the entire cohort based on the frequency of AEs and laboratory abnormalities after Day 9. In Cohort 4, participants on the compound of Formula I-11 received daily oral dosing of 350 mg for up to 7 days; one placebo participant received daily oral dosing for 9 days. Samples were collected for determination of pharmacodynamic parameters at pre-dose daily and to 24 hours post dose (day 8) while on drug. Daily trough PK samples were collected for the determination of steady-state from Day 2 to Day 12 or 13. Participants returned to the site on Day 30 for an end-of-study visit. Safety was evaluated by a Safety Review Committee prior to escalation to the next dose level cohort.
Part 2, MAD Cohort 5 (C5) participants received either the compound of Formula I-11, 100 mg (n=8) or placebo (n=2) on Days 1, 2, 3, 4, 5, 6, 7. The last dose was administered on the morning of Day 7. […]

[2] = Phase 1 single- and multiple-ascending dose study, PK parameters; format: in vivo, human
From the text: as §1
Participants in Part 1 received a single oral dose of the compound of Formula I-11 or placebo on Day 1 and serial PK samples were collected. Baseline assessments were performed on day −1 prior to dosing. Samples were collected for determination of pharmacodynamic parameters at pre-dose daily and up to 24 hours post dose (day 2) after a single oral dose of the compound of Formula I-11. […] Safety was evaluated by a Safety Review Committee prior to escalation to the next dose level cohort.
Participants in Part 2, Cohorts 1 through 3, received a daily oral dose of the compound of Formula I-11 (50, 100, or 200 mg liquid formulation respectively) or placebo for 7 days. […] Safety was evaluated by a Safety Review Committee prior to escalation to the next dose level cohort. […]

[3] = test system: healthy volunteers; assay: Phase 1 single- and multiple-ascending dose study, pharmacodynamic endpoints (serum iron, transferrin saturation, ferritin, hepcidin, reticulocyte hemoglobin, cholesterol); format: in vivo, human; settings: for transferrin saturation, mean percent change from baseline / serum iron, mean change from baseline: Day 4, multiple ascending doses; for transferrin saturation, mean percent change from baseline: placebo 0.3%; for serum iron, mean change from baseline: placebo 1.4
From the text: as §1, §2, §3
Part 2, MAD Cohort 5 (C5) participants received either the compound of Formula I-11, 100 mg (n=8) or placebo (n=2) on Days 1, 2, 3, 4, 5, 6, 7. The last dose was administered on the morning of Day 7. Serial PK sample collection for the determination of steady-state concentrations of the compound of Formula I-11 was done at pre-dose and up to 24 hours post-dose, beginning on Day 1, 4 and 7. Participants returned for follow-up visits on […], and Day 30 for an end-of-study visit.
Pharmacodynamic endpoints: Protocol-specified endpoints were assessed at baseline and regularly throughout the study period. These assessments included measurements of serum iron, transferrin saturation (calculated as serum iron/total iron-binding capacity), serum ferritin, serum hepcidin, and reticulocyte hemoglobin content, serum cholesterol, LDL, and HDL cholesterol. Measurements of all pharmacodynamic end points were made using standard clinical laboratory tests. Hepcidin analysis was performed using an ELISA kit from Intrinsic LifeSciences (Intrinsic Hepcidin IDx™ ELISA kit).

[4] = test system: mouse model of chronic kidney disease (CKD); assay: Adenine-induced mouse model of chronic kidney disease; format: in vivo, C57Bl/6 mice
Method: To induce chronic kidney disease (CKD), 6-week-old C57Bl/6 mice were dosed daily via PO administration with 50 mg/kg of adenine or vehicle. After six weeks of adenine administration, a representative group of mice were taken down and tested to confirm anemia. Concomitantly, the remainder of the CKD mice began dosing with either vehicle or the compound of Formula I-42 5 mg/kg PO daily. Mice were dosed with vehicle or the compound of Formula I-42 while still receiving daily adenine for 10 days. The study was terminated at 52 days and hematology (Heska, Element HT-5), serum hepcidin (Intrinsic Biosciences, Hepcidin Murine Compete), and serum iron (Bioassay Systems, QuantiChrom Kit) levels were assessed.

[5] = test system: mouse model of IRIDA; assay: TMPRSS6 siRNA mouse model of IRIDA; format: in vivo, C57BL/6 mice
Method: To establish a murine model of IRIDA, eight-week-old male C57BL/6 mice were dosed intravenously with lipid encapsulated siRNA targeted against either Luciferase (control) or TMPRSS6 (0.75 mg/kg). Following confirmation of disease at day 8 post initial siRNA administration, once-daily oral dosing with the compound of Formula I-42 (5 mg/kg) or vehicle commenced. A second siRNA administration was given on day 10. Studies were terminated 18 days post initial siRNA administration. Hematological parameters, serum iron, and serum hepcidin were measured at the end of the study.

[6] = fourth dose level (350 mg daily)
[7] = second dose level (100 mg daily)
[8] = third dose level (200 mg daily)
[9] = 5 mg/kg PO daily for 10 days, Day 52
[10] = 5 mg/kg PO daily, after 10 days
[11] = 5 mg/kg once-daily oral from day 8, study termination (day 18)
[12] = 5 mg/kg once-daily oral from day 8, study termination (day 18), with TMPRSS6 siRNA

## COc1cc2c(-c3cnn4cc(N5CCC(N6CCN(C)CC6)CC5)cnc34)ccnc2cc1F [Formula I-11]
[1]; after 7 daily oral doses, healthy participants
  well tolerated dose level, repeated dose: up to 200 mg
[1]; human, in vivo
  participants who discontinued the study due to AEs: 25%
[1]; in vivo
  AEs reported in ≥2 subjects and higher than placebo: headache, nausea, vomiting, diarrhea, gastroenteritis, chills, pyrexia, myalgia, decreased appetite, lymphopenia, neutropenia, abdominal discomfort, abdominal pain (upper), dizziness, fatigue, rhinorrhea, tonsillitis, and liver enzyme increases
  AEs that led to study drug discontinuation in three or more participants: lymphopenia and chills
  onset of lymphopenia (% change in lymphocytes): 5 days
  reversibility of lymphopenia / lymphocyte changes: reversible
  serious adverse events: no serious adverse events
  severity of the majority of AEs: mild or moderate in severity
  subjects who discontinued the study due to AEs: none
  subjects with increases in ALT >2×ULN: 3 subjects
[1]; in vivo, po
  development of lymphopenia (lymphocyte counts <1.0×10^9 cells/L): ≥ 6 day
[1]; single oral dose, healthy participants
  well tolerated dose level, single dose: up to 450 mg
[2]; both sexes, human, in vivo, oral, healthy participants, approximately
  half-life: 10 to 15 h
[2]; multiple doses from 50-200 mg
  Mean AUC and Cmax, dose proportionality: greater than dose-proportional increases
[3]; Cohort 5 (100 mg), after administration of the first dose, as early as
  time to decrease in hepcidin: 4 h
[3]; first dose level (50 mg daily)
  transferrin saturation, mean percent change from baseline: 1.6%
  serum iron, mean change from baseline: 1.48 μM/L
[3]; [6]
  transferrin saturation, mean percent change from baseline: 30.1%
  serum iron, mean change from baseline: 17.71 μM/L
[3]; [7]
  transferrin saturation, mean percent change from baseline: 1.5%
  serum iron, mean change from baseline: 0.59 μM/L
[3]; [8]
  transferrin saturation, mean percent change from baseline: 7.5%
  serum iron, mean change from baseline: 5.11 μM/L
[3]; MAD cohort participants
  serum ferritin: decreases in serum ferritin
[3]; MAD cohorts
  day of peak increase in reticulocyte hemoglobin content: 7 days
[3]; MAD cohorts 1-4, day post-dosing
  start of increase in reticulocyte hemoglobin content: 4 days
[3]; SAD and MAD cohorts
  effect on serum ferritin, single vs multiple doses: observed only after multiple doses
[3]; SAD cohorts
  time to decrease in total cholesterol: ≤ 24 h
[3]; multiple dose regimen, day of treatment
  day of peak serum iron concentrations: Day 3 or 4
[3]; once-daily doses of 50 mg
  transferrin saturation, observed PD response: not substantially different from placebo
[3]; once-daily oral over 7 days, effect similar at 50 mg, 100 mg and 200 mg
  serum hepcidin vs placebo: robust decreases in baseline hepcidin
[3]; repeated administration
  hemoglobin content of reticulocytes: increases over baseline in the hemoglobin content of reticulocytes
[3]; single (SAD) or once-daily (MAD) oral administration
  serum iron: rapid, robust, and sustained dose-related increases in serum iron
[3]; single dose of 30 mg, liquid formulation
  transferrin saturation, observed PD response: not substantially different from placebo
[3]; single dose, Day 2, post-dose
  time of peak effect on serum iron: 24 h
[3]; single or repeated doses of 100 mg or above
  transferrin saturation: sustained, dose-related increases in transferrin saturation
[3]; single or repeated oral administration (Cohorts 1-4)
  total cholesterol: decreases in total cholesterol

## COc1cc2c(-c3cnn4cc(N5CC(N6CCN(C)CC6)C5)cnc34)ccnc2cc1F [Formula I-42]
[4]; [9]
  hematocrit, higher than vehicle-treated mice receiving adenine: 10.2%
  hemoglobin, higher than vehicle-treated mice receiving adenine: 10.7%
  red blood cell counts, higher than vehicle-treated mice receiving adenine: 7.1%
  reticulocyte hemoglobin content, higher than vehicle-treated mice receiving adenine: 10.4%
[4]; [10]
  increase in serum iron values vs vehicle treated mice receiving adenine: 108.2%
  reduction in serum hepcidin values vs vehicle treated mice receiving adenine: 85.4%
[5]; 5 mg/kg once-daily oral
  disease phenotype: rescued the disease phenotype
[5]; [11]
  serum hepcidin vs vehicle-treated mice receiving TMPRSS6 siRNA: decreased serum hepcidin
  serum iron vs vehicle-treated mice receiving TMPRSS6 siRNA: increased serum iron
[5]; [12]
  hematocrit vs vehicle-treated mice: increase
  hemoglobin levels vs vehicle-treated mice: increase
  red blood cell counts vs vehicle-treated mice: increase
